The source of these data is patent US20260109763A1, “ANTI-PILRA ANTIBODIES, USES THEREOF, AND RELATED METHODS AND REAGENTS” (DENALI THERAPEUTICS INC., priority 2021, published 2026).

This assay relates to PILRA G78 expressing HEK293 cells. The experiment in a line: mTOR dependence of anti-PILRA antibody-induced pSTAT3 Y705. Particulars: 2 hours pre-incubation; AZD8055 3.125-50 nM, Torin 1 31.25-500 nM; then 100 nM anti-PILRA mAb 30 mins. The assay is classed as cell-based, human.

Description: To assess if pSTAT3 Y705 induction is mTOR dependent, cells were dosed with mTOR inhibitors Torin 1 (31.25-500 nM) or AZD8055 (3.125-50 nM) for 2 hours before spiking in 100 nM anti-PILRA mAb or isotype control for 30 mins.

As for `COc1ccc(-c2ccc3c(N4CCOC[C@@H]4C)nc(N4CCOC[C@@H]4C)nc3n2)cc1CO` [AZD8055], the “blocking of anti-PILRA antibody-induced pSTAT3 Y705 by mTOR inhibitor” value is recorded as “partially blocked”. Under `CCC(=O)N1CCN(c2ccc(-n3c(=O)ccc4cnc5ccc(-c6cnc7ccccc7c6)cc5c43)cc2C(F)(F)F)CC1` [Torin 1] stands “partially blocked”.
